# Values of other authors as cited in patent US20200061053A1, “PHARMACEUTICAL COMPOSITION AND METHOD FOR ACUTE ON CHRONIC LIVER FAILURE AND RELATED LIVER DISEASES” (priority 2018, published 2020).
# What was measured:
# liver = conditions: in vivo
# [1] = laboratory test indicators, liver failure patients, TMZ 20 mg three times a day
compound,measurement,setting,value
"COc1ccc(CN2CCNCC2)c(OC)c1OC.Cl.Cl [TMZ, 1-[2,3,4-trimethoxybenzyl] piperazine dihydrochloride]",liver toxicity,liver,minimal liver toxicity
same,30-day immortality rate of liver failure patients,"liver failure patients; TMZ tablets 20 mg orally, three times a day, 4-week course, hospitalized liver failure patients, traditional therapeutic approach 44%",approximately 18%
same,90-day immortality rate of liver failure patients,"liver failure patients; TMZ tablets 20 mg orally, three times a day, 4-week course, hospitalized liver failure patients, traditional therapeutic approach 68%",35%
same,decrease rate of alanine aminotransferase,liver failure patients; [1],significantly raise the decrease rate
same,decrease rate of aspartate transaminase,liver failure patients; [1],significantly raise the decrease rate
same,"maintaining liver functions and decreasing transaminase levels (alanine aminotransferase, aspartate transaminase)","liver failure patients; patients suffering from liver diseases and conditions, clinical research and trial results",significant effects in maintaining liver functions and decreasing transaminase levels
